One may read the IC50 as the midpoint of a concentration-inhibition curve. Low readings indicate greater potency in that assay, high ones weaker potency in that assay. One may read the Papp A→B as the apparent permeability from the apical to the basolateral side of a cell layer. The low end stands for poor permeation, the high end for ready permeation.

Data set [1] deals with Non-receptor tyrosine-protein kinase TYK2 (Homo sapiens, UniProt P29597).
For data set [2], the target named is Tyrosine-protein kinase JAK2 (Homo sapiens, UniProt O60674).
Chain of Tyrosine-protein kinase JAK2 (O60674 whole entry): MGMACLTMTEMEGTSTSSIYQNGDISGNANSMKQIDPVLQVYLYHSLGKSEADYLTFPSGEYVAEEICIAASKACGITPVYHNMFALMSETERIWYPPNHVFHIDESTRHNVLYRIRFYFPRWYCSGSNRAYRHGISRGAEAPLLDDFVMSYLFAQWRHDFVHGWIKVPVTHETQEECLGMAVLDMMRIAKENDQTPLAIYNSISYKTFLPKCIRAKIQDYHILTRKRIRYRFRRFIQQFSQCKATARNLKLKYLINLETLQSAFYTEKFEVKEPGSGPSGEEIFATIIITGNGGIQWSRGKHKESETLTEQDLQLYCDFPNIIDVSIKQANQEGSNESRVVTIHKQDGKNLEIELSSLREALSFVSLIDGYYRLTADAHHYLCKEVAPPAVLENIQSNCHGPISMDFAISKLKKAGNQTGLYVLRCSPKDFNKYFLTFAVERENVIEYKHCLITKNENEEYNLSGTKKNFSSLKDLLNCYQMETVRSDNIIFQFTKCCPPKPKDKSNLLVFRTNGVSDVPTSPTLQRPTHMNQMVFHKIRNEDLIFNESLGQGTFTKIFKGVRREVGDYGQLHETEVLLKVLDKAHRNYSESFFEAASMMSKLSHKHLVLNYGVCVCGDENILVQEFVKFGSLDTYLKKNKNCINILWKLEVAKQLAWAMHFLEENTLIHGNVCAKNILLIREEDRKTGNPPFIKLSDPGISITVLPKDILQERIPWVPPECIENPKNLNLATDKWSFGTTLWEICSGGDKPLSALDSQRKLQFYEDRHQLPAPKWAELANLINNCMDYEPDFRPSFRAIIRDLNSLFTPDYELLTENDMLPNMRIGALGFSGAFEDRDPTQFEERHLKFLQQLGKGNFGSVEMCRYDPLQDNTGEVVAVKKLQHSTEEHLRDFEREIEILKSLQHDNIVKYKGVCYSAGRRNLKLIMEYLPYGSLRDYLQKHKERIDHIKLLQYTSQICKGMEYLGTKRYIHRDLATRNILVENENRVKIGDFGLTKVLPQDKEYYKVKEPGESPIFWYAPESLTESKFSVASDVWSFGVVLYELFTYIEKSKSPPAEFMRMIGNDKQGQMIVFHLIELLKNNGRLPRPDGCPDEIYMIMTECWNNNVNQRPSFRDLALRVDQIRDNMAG
Data set [3] deals with Tyrosine-protein kinase JAK1 (Homo sapiens, UniProt P23458).
Chain of Tyrosine-protein kinase JAK1 (P23458 whole entry): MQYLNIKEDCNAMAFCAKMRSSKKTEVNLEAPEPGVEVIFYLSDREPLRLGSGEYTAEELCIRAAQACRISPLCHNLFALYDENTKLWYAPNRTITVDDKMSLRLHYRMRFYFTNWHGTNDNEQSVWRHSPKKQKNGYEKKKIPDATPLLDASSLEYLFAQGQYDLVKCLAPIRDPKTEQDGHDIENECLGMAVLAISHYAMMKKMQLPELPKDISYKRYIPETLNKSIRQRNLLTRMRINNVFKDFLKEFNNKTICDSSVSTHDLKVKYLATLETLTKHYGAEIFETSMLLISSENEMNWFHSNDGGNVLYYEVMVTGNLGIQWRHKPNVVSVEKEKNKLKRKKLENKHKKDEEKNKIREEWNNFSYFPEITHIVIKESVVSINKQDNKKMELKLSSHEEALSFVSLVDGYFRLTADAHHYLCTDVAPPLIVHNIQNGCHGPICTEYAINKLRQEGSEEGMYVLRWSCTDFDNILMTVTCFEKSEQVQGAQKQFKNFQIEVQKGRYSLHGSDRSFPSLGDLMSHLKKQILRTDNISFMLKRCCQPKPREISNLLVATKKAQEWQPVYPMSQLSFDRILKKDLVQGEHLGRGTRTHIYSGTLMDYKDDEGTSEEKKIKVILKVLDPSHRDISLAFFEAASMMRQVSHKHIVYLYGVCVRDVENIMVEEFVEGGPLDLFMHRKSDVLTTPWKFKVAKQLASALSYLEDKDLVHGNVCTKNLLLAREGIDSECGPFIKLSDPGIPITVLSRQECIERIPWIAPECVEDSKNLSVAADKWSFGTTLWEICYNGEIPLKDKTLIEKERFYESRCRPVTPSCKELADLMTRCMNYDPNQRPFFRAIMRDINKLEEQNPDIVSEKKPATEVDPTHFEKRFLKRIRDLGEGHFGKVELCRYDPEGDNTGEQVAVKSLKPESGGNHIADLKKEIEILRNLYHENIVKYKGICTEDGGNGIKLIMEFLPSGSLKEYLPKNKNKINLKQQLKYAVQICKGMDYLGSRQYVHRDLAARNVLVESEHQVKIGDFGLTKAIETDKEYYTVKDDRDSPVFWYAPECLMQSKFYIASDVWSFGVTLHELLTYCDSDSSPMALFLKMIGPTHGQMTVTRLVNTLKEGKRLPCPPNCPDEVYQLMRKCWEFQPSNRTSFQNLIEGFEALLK
In data set [4] the target is Protein kinase C theta type (Homo sapiens, UniProt Q04759). Put plainly: Inhibition of PKCtheta.
Chain of Protein kinase C theta type (Q04759 whole entry): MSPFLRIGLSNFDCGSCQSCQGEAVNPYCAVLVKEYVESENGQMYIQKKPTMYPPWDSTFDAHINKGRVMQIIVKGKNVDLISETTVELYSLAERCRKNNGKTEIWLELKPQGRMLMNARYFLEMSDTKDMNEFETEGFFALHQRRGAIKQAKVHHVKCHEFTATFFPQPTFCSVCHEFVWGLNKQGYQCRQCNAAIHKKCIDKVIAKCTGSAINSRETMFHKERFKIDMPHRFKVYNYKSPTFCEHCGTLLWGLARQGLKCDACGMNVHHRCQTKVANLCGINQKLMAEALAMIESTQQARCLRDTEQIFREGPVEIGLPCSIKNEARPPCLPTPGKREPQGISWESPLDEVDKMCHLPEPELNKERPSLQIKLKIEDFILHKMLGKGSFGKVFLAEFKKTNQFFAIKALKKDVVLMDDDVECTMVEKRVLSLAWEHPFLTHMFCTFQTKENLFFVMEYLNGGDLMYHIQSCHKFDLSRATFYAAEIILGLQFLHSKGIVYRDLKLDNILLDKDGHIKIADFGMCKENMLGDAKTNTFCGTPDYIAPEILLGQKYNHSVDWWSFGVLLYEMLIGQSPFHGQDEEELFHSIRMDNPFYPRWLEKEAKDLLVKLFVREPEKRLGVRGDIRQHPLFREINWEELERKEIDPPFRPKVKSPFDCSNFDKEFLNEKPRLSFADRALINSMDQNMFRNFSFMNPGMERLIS
Data set [5] concerns Jurkat. Conditions: human, 3.3 µM.
Description: Drug uptake in human Jurkat cells assessed as whole cell extract measured per 50000 cells at 3.3 uM in growth medium by LC-MS/MS analysis
The subject of data set [6] is Jurkat. The conditions noted are these: human, 1 µM.
Description: Drug uptake in human Jurkat cells assessed as whole cell extract measured per 50000 cells at 1 uM in growth medium by LC-MS/MS analysis
Data set [7] addresses T1, Tyrosine-protein kinase JAK3 (Mus musculus, UniProt Q62137).
T1 sequence (Q62137 whole entry): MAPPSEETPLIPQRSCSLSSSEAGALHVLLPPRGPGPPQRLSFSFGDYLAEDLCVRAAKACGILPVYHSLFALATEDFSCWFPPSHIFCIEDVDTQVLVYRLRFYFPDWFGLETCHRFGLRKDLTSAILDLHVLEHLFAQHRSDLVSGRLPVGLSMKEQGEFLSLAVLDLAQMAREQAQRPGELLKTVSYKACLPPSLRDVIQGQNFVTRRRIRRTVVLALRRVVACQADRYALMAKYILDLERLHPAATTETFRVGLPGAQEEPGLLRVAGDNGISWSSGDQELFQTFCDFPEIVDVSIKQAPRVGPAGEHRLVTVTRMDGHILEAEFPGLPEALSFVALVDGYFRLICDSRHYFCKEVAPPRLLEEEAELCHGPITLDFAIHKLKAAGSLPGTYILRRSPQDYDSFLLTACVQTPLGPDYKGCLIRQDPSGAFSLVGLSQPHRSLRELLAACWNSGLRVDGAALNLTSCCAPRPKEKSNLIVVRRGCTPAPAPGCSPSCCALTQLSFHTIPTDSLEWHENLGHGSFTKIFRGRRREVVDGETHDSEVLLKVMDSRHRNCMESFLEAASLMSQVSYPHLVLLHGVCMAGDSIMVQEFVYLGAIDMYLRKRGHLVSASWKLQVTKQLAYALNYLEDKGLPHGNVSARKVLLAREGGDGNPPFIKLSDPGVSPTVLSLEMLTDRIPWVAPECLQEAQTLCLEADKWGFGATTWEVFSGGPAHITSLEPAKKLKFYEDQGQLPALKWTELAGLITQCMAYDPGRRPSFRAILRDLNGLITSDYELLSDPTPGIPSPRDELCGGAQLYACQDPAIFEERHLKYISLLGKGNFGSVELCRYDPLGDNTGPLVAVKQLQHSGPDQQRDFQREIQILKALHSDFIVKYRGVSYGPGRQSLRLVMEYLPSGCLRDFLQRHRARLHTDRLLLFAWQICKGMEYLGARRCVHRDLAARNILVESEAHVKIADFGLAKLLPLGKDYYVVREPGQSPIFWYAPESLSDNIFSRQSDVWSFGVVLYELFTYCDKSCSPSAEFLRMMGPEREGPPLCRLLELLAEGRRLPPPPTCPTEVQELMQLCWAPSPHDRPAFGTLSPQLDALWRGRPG
Description: Inhibition of Jak3-mediated IL2-induced Stat5 phosphorylation in mouse CTLL cells by cell-based assay

Data set [8] relates to Jurkat. Put plainly: cells. Conditions: Homo sapiens.
Description: Inhibition of antiTCR/antiCD28-stimulated IL2 production in human Jurkat cells by measuring bioluminescence
Data set [9] relates to CTLL. The conditions noted are these: mouse, 10 µM.
Description: Drug uptake in mouse CTLL cells assessed as whole cell extract measured per 50000 cells at 10 uM in growth medium by LC-MS/MS analysis
Data set [10] deals with CTLL. Conditions: mouse, 1 µM.
Description: Drug uptake in mouse CTLL cells assessed as whole cell extract measured per 50000 cells at 1 uM in growth medium by LC-MS/MS analysis
Data set [11] has as its target Glycogen synthase kinase-3 beta (Homo sapiens, UniProt P49841). The data set can be described thus: Inhibition of GSK3-beta.
Data set [12] deals with CTLL. The conditions noted are these: mouse, 0.33 µM.
Description: Drug uptake in mouse CTLL cells assessed as whole cell extract measured per 50000 cells at 0.33 uM in growth medium by LC-MS/MS analysis
For data set [13], the system named is CTLL. The conditions noted are these: mouse, 3.3 µM.
Description: Drug uptake in mouse CTLL cells assessed as whole cell extract measured per 50000 cells at 3.3 uM in growth medium by LC-MS/MS analysis
The subject of data set [14] is Jurkat. Conditions: human, 10 µM.
Description: Drug uptake in human Jurkat cells assessed as whole cell extract measured per 50000 cells at 10 uM in growth medium by LC-MS/MS analysis
A further data set is described as follows: in vitro. The conditions noted are these: human, Caco-2.
In data set [15] the test system is Jurkat. Conditions: human, 0.33 µM.
Description: Drug uptake in human Jurkat cells assessed as whole cell extract measured per 50000 cells at 0.33 uM in growth medium by LC-MS/MS analysis
In data set [16] the target is Protein kinase C alpha type (Homo sapiens, UniProt P17252). The data set can be described thus: Inhibition of PKCalpha.
Data set [17] concerns the target T2, Tyrosine-protein kinase JAK3 (Homo sapiens, UniProt P52333).
T2 sequence (P52333 whole entry): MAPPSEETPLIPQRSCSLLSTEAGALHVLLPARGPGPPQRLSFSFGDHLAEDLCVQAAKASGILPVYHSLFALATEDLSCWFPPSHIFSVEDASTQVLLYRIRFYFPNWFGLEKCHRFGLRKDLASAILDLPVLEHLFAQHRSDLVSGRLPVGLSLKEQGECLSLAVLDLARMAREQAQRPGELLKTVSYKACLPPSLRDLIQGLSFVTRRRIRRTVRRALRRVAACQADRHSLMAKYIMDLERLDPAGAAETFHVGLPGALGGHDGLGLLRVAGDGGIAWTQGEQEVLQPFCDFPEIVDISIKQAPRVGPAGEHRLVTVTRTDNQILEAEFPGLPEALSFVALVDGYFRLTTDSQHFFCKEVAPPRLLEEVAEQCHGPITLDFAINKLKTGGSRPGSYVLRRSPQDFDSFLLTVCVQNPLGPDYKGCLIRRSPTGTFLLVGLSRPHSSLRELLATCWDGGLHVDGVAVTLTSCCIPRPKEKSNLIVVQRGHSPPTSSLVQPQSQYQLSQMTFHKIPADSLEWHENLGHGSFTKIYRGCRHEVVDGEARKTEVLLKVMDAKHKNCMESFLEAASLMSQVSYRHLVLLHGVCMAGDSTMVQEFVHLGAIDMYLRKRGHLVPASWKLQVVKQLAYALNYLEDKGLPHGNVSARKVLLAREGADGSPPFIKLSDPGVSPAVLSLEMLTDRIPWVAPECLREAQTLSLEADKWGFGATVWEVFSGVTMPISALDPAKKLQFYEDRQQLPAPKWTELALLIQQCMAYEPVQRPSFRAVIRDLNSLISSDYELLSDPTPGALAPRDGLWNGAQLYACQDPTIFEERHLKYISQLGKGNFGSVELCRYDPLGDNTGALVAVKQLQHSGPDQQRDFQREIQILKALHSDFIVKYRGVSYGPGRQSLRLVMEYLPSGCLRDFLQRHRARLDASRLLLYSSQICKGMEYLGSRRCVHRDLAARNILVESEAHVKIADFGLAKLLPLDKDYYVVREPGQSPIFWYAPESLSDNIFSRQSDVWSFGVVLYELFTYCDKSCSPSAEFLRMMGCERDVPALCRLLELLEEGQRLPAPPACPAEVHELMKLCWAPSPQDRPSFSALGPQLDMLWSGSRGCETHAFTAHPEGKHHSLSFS
Type of data set: cell-based.

The structures appear in SMILES notation.

Chain of Non-receptor tyrosine-protein kinase TYK2 (P29597 whole entry): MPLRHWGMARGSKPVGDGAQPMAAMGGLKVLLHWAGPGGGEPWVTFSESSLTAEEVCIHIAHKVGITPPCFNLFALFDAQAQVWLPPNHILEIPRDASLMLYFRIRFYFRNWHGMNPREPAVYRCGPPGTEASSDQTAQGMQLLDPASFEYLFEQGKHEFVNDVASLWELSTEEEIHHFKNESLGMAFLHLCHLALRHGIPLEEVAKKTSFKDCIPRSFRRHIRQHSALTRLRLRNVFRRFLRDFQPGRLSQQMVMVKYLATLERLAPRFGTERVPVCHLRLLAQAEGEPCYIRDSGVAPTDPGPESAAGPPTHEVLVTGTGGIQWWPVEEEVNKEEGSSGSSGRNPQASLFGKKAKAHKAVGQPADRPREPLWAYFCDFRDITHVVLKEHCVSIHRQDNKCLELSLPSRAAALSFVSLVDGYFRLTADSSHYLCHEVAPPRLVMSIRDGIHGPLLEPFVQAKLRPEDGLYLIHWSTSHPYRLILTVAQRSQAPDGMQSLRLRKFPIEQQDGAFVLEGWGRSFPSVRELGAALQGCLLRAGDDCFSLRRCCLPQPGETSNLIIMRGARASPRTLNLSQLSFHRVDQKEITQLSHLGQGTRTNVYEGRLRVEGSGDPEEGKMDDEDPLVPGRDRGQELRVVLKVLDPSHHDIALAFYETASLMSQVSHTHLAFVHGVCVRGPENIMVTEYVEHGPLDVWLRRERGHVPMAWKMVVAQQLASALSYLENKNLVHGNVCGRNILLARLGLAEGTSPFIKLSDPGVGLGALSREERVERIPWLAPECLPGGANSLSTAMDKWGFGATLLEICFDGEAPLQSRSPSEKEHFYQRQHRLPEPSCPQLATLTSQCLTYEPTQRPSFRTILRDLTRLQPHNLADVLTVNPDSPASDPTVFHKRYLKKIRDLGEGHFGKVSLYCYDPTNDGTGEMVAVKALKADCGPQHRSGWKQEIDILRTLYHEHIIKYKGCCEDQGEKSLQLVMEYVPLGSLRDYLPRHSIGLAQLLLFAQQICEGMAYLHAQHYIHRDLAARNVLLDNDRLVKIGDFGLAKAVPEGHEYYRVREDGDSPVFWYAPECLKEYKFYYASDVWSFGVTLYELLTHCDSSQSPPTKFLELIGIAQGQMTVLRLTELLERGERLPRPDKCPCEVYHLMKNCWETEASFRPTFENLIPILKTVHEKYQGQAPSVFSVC
Chain of Glycogen synthase kinase-3 beta (P49841 whole entry): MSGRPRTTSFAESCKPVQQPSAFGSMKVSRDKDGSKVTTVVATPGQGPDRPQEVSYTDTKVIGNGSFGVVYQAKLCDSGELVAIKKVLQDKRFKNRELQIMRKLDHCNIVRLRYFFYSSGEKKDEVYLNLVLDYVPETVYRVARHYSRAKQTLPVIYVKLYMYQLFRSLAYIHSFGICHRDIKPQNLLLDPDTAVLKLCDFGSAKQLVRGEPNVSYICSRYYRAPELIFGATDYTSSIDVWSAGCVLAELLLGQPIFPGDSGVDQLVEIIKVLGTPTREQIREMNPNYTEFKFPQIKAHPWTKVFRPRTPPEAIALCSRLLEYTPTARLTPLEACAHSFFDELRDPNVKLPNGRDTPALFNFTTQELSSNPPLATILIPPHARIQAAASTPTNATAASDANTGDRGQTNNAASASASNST

`O=C1CCN(c2ncc(C(F)(F)F)c(C3=C(c4c[nH]c5ccccc45)C(=O)NC3=O)n2)CC1`: the IC50 is 4330 nM in data set [1], 330 nM in data set [2] and 253 nM in data set [3].
For `CC(C)(O)C(=O)N1CCN(c2ccc(C(F)(F)F)c(C3=C(c4c[nH]c5ccccc45)C(=O)NC3=O)c2)CC1`, the IC50 worked out at 68 nM in [4]; 1290 nM in data set [7]; 689 nM in the data set with Jurkat [8]; 3 nM in data set [11]; 13 nM in data set [16]. Also, the Drug uptake in the data set on Jurkat [5] came to 23.48 pmol; in the data set with Jurkat [6], 7.88 pmol; in the data set with CTLL [9], 64.33 pmol; in the data set with CTLL [10], 10.97 pmol; with CTLL [12] it was 3.12 pmol; in the data set on CTLL [13], 31.27 pmol. Further, the Drug uptake with Jurkat [14] turned out to be 55.58 pmol; in the data set on Jurkat [15], 2.4 pmol. In “in vitro”, this molecule had a Papp A→B of 3 ×10⁻⁶ cm/s.
As to `O=C1NC(=O)C(c2c[nH]c3ccccc23)=C1c1cc(F)ccc1C(F)(F)F`, the half-maximal inhibitory concentration (IC50) in data set [1], in [2], in data set [3] and in [17] was above 10000 nM in each case.
For the molecule `O=C1NC(=O)C(c2c[nH]c3ccccc23)=C1c1cc(N2CCNCC2)ccc1C(F)(F)F`, the IC50 in data set [1] is above 10000 nM; in [2], 4700 nM; in data set [3] it was 737 nM; in data set [17], 133 nM.
With `CN(C)c1ccc(C(F)(F)F)c(C2=C(c3c[nH]c4ccccc34)C(=O)NC2=O)c1`, the IC50 was above 10000 nM in data set [1], 9150 nM in data set [2], 4700 nM in data set [3] and 423 nM in data set [17].
As to `O=CN1CCN(c2ccc(C(F)(F)F)c(C3=C(c4c[nH]c5ccccc45)C(=O)NC3=O)c2)CC1`, the IC50 in data set [1] turned out to be 5040 nM; in [2] it was 1440 nM; in [3], 754 nM; in data set [17], 36 nM.
`O=C1NC(=O)C(c2c[nH]c3ccccc23)=C1c1cc(N2CCOCC2)ccc1C(F)(F)F`: the IC50 in data set [1] is above 10000 nM; in data set [2], above 10000 nM; in [3] it was 6500 nM; in data set [17] it was 460 nM.

For the origin of these results see ChEMBL document CHEMBL1649080, “Identification of a potent Janus kinase 3 inhibitor with high selectivity within the Janus kinase family” (J Med Chem, 2011).
